# Reference: ChEMBL document CHEMBL6177950, “Discovery of potent and selective CDK2 inhibitors with high safety and favorable bioavailability for the treatment of cancer” (Eur J Med Chem, 2025)
# Test system: MCF7
# Assay: Antiproliferative activity against wild type human MCF7 cells assessed as cell growth inhibition
# Assay type: functional, cell-based
# Settings: not given
row,SMILES,IC50 [nM]
1,CC(=O)c1c(C)c2cnc(Nc3ccc(N4CCNCC4)cn3)nc2n(C2CCCC2)c1=O [PALBOCICLIB],80

# Test system: OVCAR-3
# Assay: Induction of apoptosis in human OVCAR-3 cells assessed as early apoptotic cells at 2 uM incubated for 24 hrs by Annexin V-FITC/PI staining based flow cytometry analysis (reference value: 1.25%)
# Assay type: functional
# Settings: not given
row,SMILES,Activity [%]
1,FC(F)Oc1cc(Nc2cnc3cnn(CC4CCOCC4)c3n2)n[nH]1 [CERTOCICLIB],4.47

# Test system: not listed separately
# Assay: Antiproliferative activity against Palbociclib-resistance human MCF7 cells assessed as cell growth inhibition
# Assay type: functional, cell-based, Palbociclib-resistant MCF7 cell
# Settings: not given
row,SMILES,IC50 [nM]
1,CC(=O)c1c(C)c2cnc(Nc3ccc(N4CCNCC4)cn3)nc2n(C2CCCC2)c1=O [PALBOCICLIB],13800

# Test system: OVCAR-3
# Assay: Induction of apoptosis in human OVCAR-3 cells assessed as late apoptotic cells at 2 uM incubated for 24 hrs by Annexin V-FITC/PI staining based flow cytometry analysis (reference value: 2.67%)
# Assay type: functional
# Settings: not given
row,SMILES,Activity [%]
1,FC(F)Oc1cc(Nc2cnc3cnn(CC4CCOCC4)c3n2)n[nH]1 [CERTOCICLIB],12.5

# Test system: OVCAR-3
# Assay: Induction of apoptosis in human OVCAR-3 cells assessed as viable cells at 2 uM incubated for 24 hrs by Annexin V-FITC/PI staining based flow cytometry analysis (reference value: 95.2%)
# Assay type: functional
# Settings: read-out: Activity
row,SMILES,viability at 2 µM [%]
1,FC(F)Oc1cc(Nc2cnc3cnn(CC4CCOCC4)c3n2)n[nH]1 [CERTOCICLIB],79.3

# Test system: not listed separately
# Assay: Antiproliferative activity against CCNE1-amplified human OVCAR-3 cells assessed as cell growth inhibition incubated for 3 days by CCK8 assay
# Assay type: functional, cell-based
# Settings: OVCAR-3, 72 h
row,SMILES,IC50 [nM]
1,FC(F)Oc1cc(Nc2cnc3cnn(CC4CCOCC4)c3n2)n[nH]1 [CERTOCICLIB],2310

# Test system: OVCAR-3
# Assay: Induction of apoptosis in human OVCAR-3 cells assessed as necrotic cells at 2 uM incubated for 24 hrs by Annexin V-FITC/PI staining based flow cytometry analysis (reference value: 0.87%)
# Assay type: functional
# Settings: not given
row,SMILES,Activity [%]
1,FC(F)Oc1cc(Nc2cnc3cnn(CC4CCOCC4)c3n2)n[nH]1 [CERTOCICLIB],3.77

# Molecular target: Cyclin-dependent kinase 2/cyclin E1 (Homo sapiens, UniProt P24941)
# Assay: Inhibition of CDK2/Cyclin E1 (unknown origin) pre-incubated for 10 mins followed by ATP/substrate addition and measured after 60 mins by ADP-Glo assay
# Assay type: protein-complex assay
# Settings: not given
row,SMILES,IC50 [nM]
1,COCCS(=O)(=O)N1CCC(Nc2ncc(F)c(-c3cc(F)c(=O)n(C(C)C)c3)n2)CC1,7
2,COCCS(=O)(=O)N1CCC(Nc2ncc(F)c(-c3cnc(OC(C)C)c(F)c3)n2)CC1,124
3,CC(C)Oc1ncc(-c2ccnc(NC3CCN(S(C)(=O)=O)CC3)n2)cc1F,810
4,CC(C)Oc1ccc(-c2nc(NC3CCN(S(C)(=O)=O)CC3)ncc2F)cn1,93
5,CC(C)Oc1ncc(-c2nc(NC3CCN(S(C)(=O)=O)CC3)ncc2F)cc1C(=O)O,656
6,CC(C)Oc1ncc(-c2nc(NC3CCN(S(C)(=O)=O)CC3)ncc2F)cc1F,73
7,CC(C)n1cc(-c2nc(NC3CCN(S(=O)(=O)C4CC4)CC3)ncc2F)cc(F)c1=O,5
8,CC(C)n1cc(-c2nc(NC3CCN(S(=O)(=O)C(F)(F)F)CC3)ncc2F)ccc1=O,42
9,CC(C)n1cc(-c2nc(NC3CCN(C(=O)OC(C)(C)C)CC3)ncc2F)ccc1=O,139
10,Cn1cc(-c2nc(NC3CCN(S(C)(=O)=O)CC3)ncc2F)cc(F)c1=O,70
11,COCCS(=O)(=O)N1CCC(Nc2ncc(F)c(-c3ccc(=O)n(C(C)C)c3)n2)CC1,10
12,CC(=O)N1CCC(Nc2ncc(F)c(-c3ccc(=O)n(C(C)C)c3)n2)CC1,63
13,Cc1cc(-c2nc(NC3CCN(S(C)(=O)=O)CC3)ncc2F)cnc1OC(C)C,166
14,CCS(=O)(=O)N1CCC(Nc2ncc(F)c(-c3cc(F)c(=O)n(C(C)C)c3)n2)CC1,6
15,CCCS(=O)(=O)N1CCC(Nc2ncc(F)c(-c3ccc(=O)n(C(C)C)c3)n2)CC1,7
16,CCCS(=O)(=O)N1CCC(Nc2ncc(F)c(-c3cnc(OC(C)C)c(F)c3)n2)CC1,130
17,Cc1nc(OC(C)C)ccc1-c1nc(NC2CCN(S(C)(=O)=O)CC2)ncc1F,297

row,SMILES,IC50 [nM]
1,CC(C)n1cc(-c2nc(NC3CCN(S(=O)(=O)C(C)C)CC3)ncc2F)cc(F)c1=O,8
2,CC(C)=CCn1cc(-c2nc(NC3CCN(S(C)(=O)=O)CC3)ncc2F)cc(F)c1=O,15
3,Cc1cc(-c2nc(NC3CCN(S(C)(=O)=O)CC3)ncc2F)cn(C(C)C)c1=O,222
4,CC(C)n1cc(-c2nc(NC3CCN(S(C)(=O)=O)CC3)ncc2F)cc(F)c1=O,4
5,CCCS(=O)(=O)N1CCC(Nc2ncc(F)c(-c3cc(F)c(=O)n(C(C)C)c3)n2)CC1,5
6,CCC(C)n1cc(-c2nc(NC3CCN(S(=O)(=O)CCOC)CC3)ncc2F)cc(F)c1=O (stereo not drawn),5
7,CC(C)n1cc(-c2nc(NC3CCNCC3)ncc2F)ccc1=O,> 1000
8,CC(C)Oc1ncc(-c2nc(NC3CCN(S(=O)(=O)C(C)C)CC3)ncc2F)cc1F,216
9,CC(C)n1cc(-c2nc(NC3CCN(S(=O)(=O)C(C)C)CC3)ncc2F)ccc1=O,16
10,CC(C)n1cc(-c2nc(NC3CCN(S(C)(=O)=O)CC3)ncc2F)ccc1=O,7
11,COc1cnc(NC2CCN(S(C)(=O)=O)CC2)nc1-c1cnc(OC(C)C)c(F)c1,341
12,CCC(C)n1cc(-c2nc(NC3CCN(S(C)(=O)=O)CC3)ncc2F)cc(F)c1=O (stereo not drawn),3
13,CCC(C)n1cc(-c2nc(NC3CCN(S(=O)(=O)CC)CC3)ncc2F)cc(F)c1=O (stereo not drawn),7
14,CCS(=O)(=O)N1CCC(Nc2ncc(F)c(-c3cnc(OC(C)C)c(F)c3)n2)CC1,113
15,CCCCn1cc(-c2nc(NC3CCN(S(C)(=O)=O)CC3)ncc2F)cc(F)c1=O,13
16,CCn1cc(-c2nc(NC3CCN(S(C)(=O)=O)CC3)ncc2F)cc(F)c1=O,23
17,CC(C)Cn1cc(-c2nc(NC3CCN(S(C)(=O)=O)CC3)ncc2F)cc(F)c1=O,12

# Test system: OVCAR-3
# Assay: Induction of cell cycle arrest in human OVCAR-3 cells assessed as accumulation of cells at G1 phase at 2 uM incubated for 24 hrs by flow cytometry analysis (reference value: 67.73%)
# Assay type: functional
# Settings: not given
row,SMILES,Activity [%]
1,FC(F)Oc1cc(Nc2cnc3cnn(CC4CCOCC4)c3n2)n[nH]1 [CERTOCICLIB],95.66

# Test system: OVCAR-3
# Assay: Induction of cell cycle arrest in human OVCAR-3 cells assessed as accumulation of cells at G2 phase at 2 uM incubated for 24 hrs by flow cytometry analysis (reference value: 21.77%)
# Assay type: functional
# Settings: not given
row,SMILES,Activity [%]
1,FC(F)Oc1cc(Nc2cnc3cnn(CC4CCOCC4)c3n2)n[nH]1 [CERTOCICLIB],2.64
